This passage reports IC50 results from ChEMBL document CHEMBL1201862, “PubChem BioAssay data set” (2004).

The IC50 is the concentration at which inhibition is half-maximal.

The assay concerns the target Envelope glycoprotein gp160 (Human immunodeficiency virus 1, UniProt Q6QLK5). The assay can be described thus: inhibitors of HIV fusion peptide binding, primary screen, biochemical, uHTS, fluorescence dequenching (AID 1986).

Active and inactive are the calls of the source. Rule as the data show it: actives have a measured IC50 and inactives only a lower limit.

Chain of Envelope glycoprotein gp160 (Q6QLK5 whole entry, the tested form may be a part): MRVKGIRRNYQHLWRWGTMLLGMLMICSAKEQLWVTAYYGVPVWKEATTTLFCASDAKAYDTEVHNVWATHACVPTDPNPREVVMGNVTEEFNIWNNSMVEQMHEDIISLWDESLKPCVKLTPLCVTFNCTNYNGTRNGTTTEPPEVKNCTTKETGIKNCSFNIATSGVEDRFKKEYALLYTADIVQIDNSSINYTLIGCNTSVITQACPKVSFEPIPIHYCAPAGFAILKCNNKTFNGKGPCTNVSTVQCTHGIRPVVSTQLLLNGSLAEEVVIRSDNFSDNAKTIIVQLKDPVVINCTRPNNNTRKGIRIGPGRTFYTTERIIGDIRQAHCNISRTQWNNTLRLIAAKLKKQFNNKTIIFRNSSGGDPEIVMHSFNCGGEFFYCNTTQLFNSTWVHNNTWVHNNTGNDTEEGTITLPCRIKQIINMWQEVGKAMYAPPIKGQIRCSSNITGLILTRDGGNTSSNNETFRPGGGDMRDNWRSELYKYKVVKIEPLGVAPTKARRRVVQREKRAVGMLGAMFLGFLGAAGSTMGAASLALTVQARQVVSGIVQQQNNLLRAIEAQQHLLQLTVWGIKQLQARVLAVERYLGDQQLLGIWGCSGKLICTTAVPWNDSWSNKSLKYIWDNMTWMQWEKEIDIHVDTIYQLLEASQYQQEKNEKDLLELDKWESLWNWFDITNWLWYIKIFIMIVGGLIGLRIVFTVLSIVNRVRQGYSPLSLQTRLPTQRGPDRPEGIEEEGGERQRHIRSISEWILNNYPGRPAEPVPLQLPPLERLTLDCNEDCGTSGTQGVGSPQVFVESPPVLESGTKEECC

`Cc1ccccc1C(=O)Nc1cccc(C(=O)N/N=C/c2cc(Cl)cc([N+](=O)[O-])c2O)c1`: the IC50 is 31.3 µM (active).
